Data on 26 molecules can be found in patent publication US11505547B2, “Compounds” (STEP PHARMA S.A.S., priority 2017, dated 2022).

pIC50: −log10 of the molar value.

A word on the pIC50: it is the IC50 on a negative log10 scale, so that one unit is a factor of ten.

The experiment concerns the target T1, human CTPS1 (Homo sapiens, UniProt P17812).
T1 construct: purchased Proteros biostructures GmbH
T1 sequence (P17812 1-591): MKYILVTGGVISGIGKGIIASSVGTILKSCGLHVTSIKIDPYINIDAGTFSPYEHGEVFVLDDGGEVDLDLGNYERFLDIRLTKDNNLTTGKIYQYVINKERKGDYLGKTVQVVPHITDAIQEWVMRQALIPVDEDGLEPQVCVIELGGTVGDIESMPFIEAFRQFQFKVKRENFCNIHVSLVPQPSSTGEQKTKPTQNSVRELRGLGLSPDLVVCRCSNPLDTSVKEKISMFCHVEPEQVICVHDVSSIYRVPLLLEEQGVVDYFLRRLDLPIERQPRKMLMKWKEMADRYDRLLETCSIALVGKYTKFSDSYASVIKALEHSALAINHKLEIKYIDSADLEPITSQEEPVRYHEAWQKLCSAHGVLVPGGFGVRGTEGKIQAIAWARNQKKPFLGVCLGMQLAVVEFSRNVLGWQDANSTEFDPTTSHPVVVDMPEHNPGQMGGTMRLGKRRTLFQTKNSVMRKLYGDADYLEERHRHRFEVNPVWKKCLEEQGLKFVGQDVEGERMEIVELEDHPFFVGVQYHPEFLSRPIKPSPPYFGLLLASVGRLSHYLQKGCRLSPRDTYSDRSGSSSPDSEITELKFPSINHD
Kind of experiment: Human CTPS1 enzyme inhibition, ADP-Glo Max assay. As to conditions: human full length CTPS1, read-out: CTPS1 (Human CTPS1 Enzyme Inhibition data grouped by potency range, IC50). The experiment is classed as biochemical. Here is the method:
Biological Example 1—Human CTPS1 Enzyme Inhibition
The enzyme inhibitory activities of compounds invented against the target of interest were determined using the ADP-Glo™ Max assay (Promega, UK). Assays for human CTPS1 were performed in 1× assay buffer containing 50 mM Tris, 10 mM MgCl2, 0.01% Tween-20, pH to 8.0 accordingly. Finally, immediately before use, L-cysteine was added to the 1× assay buffer to a final concentration of 2 mM. All reagents are from Sigma-Aldrich unless specified otherwise. Human full length active C-terminal FLAG-Hiss-tag CTPS1 (UniProtKB-P17812, CTPS[1-591]-[…]) was obtained from Proteros biostructures GmbH.
3× human CTPS1 protein was prepared in 1× assay buffer to the final working protein concentration required for the reaction. A 2 uL volume per well of 3× human CTPS1 protein was mixed with 2 uL per well of 3× test compound (compound prepared in 1× assay buffer to an appropriate final 3× compound concentration respective to the concentration response curve designed for the compounds under test) for 10 minutes at 25° C. The enzymatic reaction was then initiated by addition of a 2 uL per well volume of a pre-mixed substrate mix (UltraPure ATP from ADP-Glo™ Max kit (0.31 mM), GTP (0.034 mM), UTP (0.48 mM) and L-glutamine (0.186 mM)) and the mixture was incubated for an appropriate amount of time within the determined linear phase of the reaction at 25° C. under sealed plate conditions with constant agitation at 500 revolutions per minute (rpm). ADP-GIo™ Max reagent was added for 60 minutes (6 uL per well) and subsequently ADP-Glo™ Max development reagent was added for 60 minutes (12 uL per well) prior to signal detection in a microplate reader (EnVision® Multilabel Reader, Perkin Elmer). Following each reagent addition over the course of the assay, assay plates were pulse centrifuged for 30 seconds at 500 rpm.
In all cases, the enzyme converts ATP to ADP and the ADP-Glo™ Max reagent subsequently depletes any remaining endogenous ATP in the reaction system. The ADP-Glo™ Max detection reagent converts the ADP that has been enzymatically produced back into ATP and using ATP as a substrate together with luciferin for the enzyme luciferase, light is generated which produces a detectable luminescence. […] The percentage inhibition produced by each concentration of compound was calculated using the equation shown below: […]
Percentage inhibition was then plotted against compound concentration, and the 50% inhibitory concentration (IC50) was determined from the resultant concentration-response curve.
`CCOc1cncc(-c2ccc(C(=O)NC(C)(C)c3csc(NS(=O)(=O)C4CC4)n3)c(C)c2)n1` [Example R46, N-(2-(2-(cyclopropanesuIfonamido)thiazol-4-yl)propan-2-yl)-4-(6-ethoxypyrazin-2-yl)-2-methylbenzamide]: the pIC50 is 6.00 to 7.00.

As to `CC(C)(NC(=O)c1ccc(-c2cncc(Cl)c2)cc1F)c1csc(NS(=O)(=O)C2CC2)n1` [Example R30], the pIC50 was 6.00 to 7.00.

Turning to `COc1cc(-c2cncc(Cl)n2)ccc1C(=O)NC(C)(C)c1csc(NS(=O)(=O)C2CC2)n1` [Example R49, 4-(6-chloropyrazin-2-yl)-N-(2-(2-(cyclopropanesulfonamido)thiazol-4-yl)propan-2-yl)-2-methoxybenzamide], the pIC50 was 6.00 to 7.00.

`CC(C)(NC(=O)c1ccc(-c2cnccn2)cc1)c1csc(NS(=O)(=O)C2CC2)n1` [Example R58, N-(2-(2-(cyclopropanesulfonamido)thiazol-4-yl)propan-2-yl)-4-(pyrazin-2-yl)benzamide]: the pIC50 was 6.00 to 7.00.

Take `CC(C)(NC(=O)c1ccc(-c2cncc(OCC(F)(F)F)n2)cc1)c1csc(NS(=O)(=O)C2CC2)n1` [Example R57, N-(2-(2-(cyclopropanesuIfonamido)thiazol-4-yl)propan-2-yl)-4-(6-(2,2,2-trifluoroethoxy)pyrazin-2-yl)benzamide]: the pIC50 was 6.00 to 7.00.

For `CC(C)(NC(=O)c1ccc(-c2cncc(C(F)(F)F)c2)cc1F)c1csc(NS(=O)(=O)C2CC2)n1` [Example R29], the pIC50 is over 7.00.

In the case of `COCCC(NC(=O)c1ccc(-c2cncc(F)c2)cc1)c1csc(NS(=O)(=O)C2CC2)n1` (centres unmarked) [Example R85, N-(1-(2-(cyclopropanesulfonamido)thiazol-4-yl)-3-methoxypropyl)-4-(5-fluoropyridin-3-yl)benzamide], the pIC50 was 6.00 to 7.00.

For the molecule `CCOc1cncc(-c2ccc(C(=O)NC(C)(C)c3csc(NS(=O)(=O)C4CC4)n3)c(C(F)(F)F)c2)n1` [Example R47, N-(2-(2-(cyclopropanesuIfonamido)thiazol-4-yl)propan-2-yl)-4-(6-ethoxypyrazin-2-yl)-2-(trifluoromethyl)benzamide], the pIC50 is 6.00 to 7.00.

As for `O=C(NCc1csc(NS(=O)(=O)C2CC2)n1)c1ccc(-c2cncc(C(F)(F)F)n2)cc1F` [Example R10, N-((2-(cyclopropanesulfonamido)thiazol-4-yl)methyl)-2-fluoro-4-(6-(trifluoromethyl)pyrazin-2-yl)benzamide], the pIC50 is over 7.00.

For `CCC(CC)(NC(=O)c1ccc(-c2cncc(C(F)(F)F)n2)cc1)c1csc(NS(=O)(=O)C2CC2)n1` [Example R19, N-(3-(2-(cyclopropanesulfonamido)thiazol-4-yl)pentan-3-yl)-4-(6-(trifluoromethyl)pyrazin-2-yl)benzamide], the negative-log IC50 (pIC50) was over 7.00.

Take `Cc1sc(NS(=O)(=O)C2CC2)nc1C(C)(C)NC(=O)c1ccc(-c2cncc(C(F)(F)F)n2)cc1` [Example R78, N-(2-(2-(cyclopropanesuIfonamido)-5-methylthiazol-4-yl)propan-2-yl)-4-(6-(trifluoromethyl)pyrazin-2-yl)benzamide]: the negative-log IC50 (pIC50) was 6.00 to 7.00.

Take `CC(C)(NC(=O)c1ccc(-c2cncc(C(F)(F)F)n2)cn1)c1csc(NS(=O)(=O)C2CC2)n1` [Example R24, N-(2-(2-(cyclopropanesulfonamido)thiazol-4-yl)propan-2-yl)-5-(6-(trifluoromethyl)pyrazin-2-yl)picolinamide]: the negative logarithm of the IC50 (pIC50) is 6.00 to 7.00.

For the molecule `Cc1ncccc1-c1ccc(C(=O)NC(C)(C)c2csc(NS(=O)(=O)C3CC3)n2)cc1` [Example R33], the negative logarithm of the IC50 (pIC50) is 5.00 to 6.00.

Regarding `CCC(CC)(NC(=O)c1ccc(-c2cncc(C)c2)cc1)c1csc(NS(=O)(=O)C2CC2)n1` [Example R17, N-(3-(2-(cyclopropanesulfonamido)thiazol-4-yl)pentan-3-yl)-4-(5-methylpyridin-3-yl)benzamide], the pIC50 is 6.00 to 7.00.

With `CCOc1cncc(-c2ccc(C(=O)NC(CCOC)c3csc(NS(=O)(=O)C4CC4)n3)c(F)c2)n1` (centres unmarked) [Example R88, N-(1-(2-(cyclopropanesulfonamido)thiazol-4-yl)-3-methoxypropyl)-4-(6-ethoxypyrazin-2-yl)-2-fluorobenzamide], the pIC50 was 6.00 to 7.00.

`CC(C)(NC(=O)c1ccc(-c2cncc(Cl)n2)cn1)c1csc(NS(=O)(=O)C2CC2)n1` [Example R25, 5-(6-chloropyrazin-2-yl)-N-(2-(2-(cyclopropanesulfonamido)thiazol-4-yl)propan-2-yl)picolinamide]: the pIC50 is 6.00 to 7.00.

Consider `Cc1cc(-c2cncc(C(F)(F)F)n2)ccc1C(=O)NC(C)(C)c1nc(NS(=O)(=O)C2CC2)sc1Cl` [Example R77, N-(2-(5-chloro-2-(cyclopropanesulfonamido)thiazol-4-yl)propan-2-yl)-2-methyl-4-(6-(trifluoromethyl)pyrazin-2-yl)benzamide], for which the pIC50 is 5.00 to 6.00.

For `CC(C)(NC(=O)c1ccc(-c2cncc(Cl)c2)cc1)c1csc(NS(=O)(=O)C2CC2)n1` [Example R28], the pIC50 is over 7.00.

Consider `CCC(NC(=O)c1ccc(-c2cncc(C(F)(F)F)c2)cc1)c1csc(NS(=O)(=O)C2CC2)n1` (racemic) [Example R2, N-(1-(2-(cyclopropanesulfonamido)thiazol-4-yl)propyl)-4-(5-(trifluoromethyl)pyridin-3-yl)benzamide], for which the pIC50 is 6.00 to 7.00.

For `CCOc1cncc(-c2ccc(C(=O)NC(CC)c3csc(NS(=O)(=O)C4CC4)n3)c(F)c2)n1` (racemic) [Example R62, N-(1-(2-(cyclopropanesulfonamido)thiazol-4-yl)propyl)-4-(6-ethoxypyrazin-2-yl)-2-fluorobenzamide], the pIC50 is 6.00 to 7.00.

For `CCOc1cncc(-c2ccc(C(=O)NC3(c4csc(NS(=O)(=O)C5CC5)n4)CC3)nc2)n1` [Example R80, N-(1-(2-(cyclopropanesulfonamido)thiazol-4-yl)cyclopropyl)-5-(6-ethoxypyrazin-2-yl)picolinamide], the pIC50 was over 7.00.

As for `CC(C)Oc1cncc(-c2ccc(C(=O)NC(C)(C)c3csc(NS(=O)(=O)C4CC4)n3)c(F)c2)n1` [Example R43, N-(2-(2-(cyclopropanesulfonamido)thiazol-4-yl)propan-2-yl)-2-fluoro-4-(6-isopropoxypyrazin-2-yl)benzamide], the pIC50 is over 7.00.

As for `COCCC(NC(=O)c1ccc(-c2cncc(C(F)(F)F)n2)cc1F)c1csc(NS(=O)(=O)C2CC2)n1` (centres unmarked) [Example R87, N-(1-(2-(cyclopropanesulfonamido)thiazol-4-yl)-3-methoxypropyl)-2-fluoro-4-(6-(trifluoromethyl)pyrazin-2-yl)benzamide], the pIC50 was 6.00 to 7.00.

As to `CCC(NC(=O)c1ccc(-c2cnccn2)cc1)c1csc(NS(=O)(=O)C2CC2)n1` (racemic) [Example R67, N-(1-(2-(cyclopropanesulfonamido)thiazol-4-yl)propyl)-4-(pyrazin-2-yl)benzamide], the pIC50 is 6.00 to 7.00.

Take `Cc1cc(-c2cncc(C(F)(F)F)n2)ccc1C(=O)NC(C)(C)c1csc(NS(=O)(=O)C2CC2)n1` [Example R45, N-(2-(2-(cyclopropanesulfonamido)thiazol-4-yl)propan-2-yl)-2-methyl-4-(6-(trifluoromethyl)pyrazin-2-yl)benzamide]: the pIC50 is 6.00 to 7.00.

Take `COc1cc(-c2cncc(C#N)n2)ccc1C(=O)NC(C)(C)c1csc(NS(=O)(=O)C2CC2)n1` [Example R50, 4-(6-cyanopyrazin-2-yl)-N-(2-(2-(cyclopropanesulfonamido)thiazol-4-yl)propan-2-yl)-2-methoxybenzamide]: the pIC50 is 5.00 to 6.00.
